Measured values from patent US12668589B2, “N-formamidopyrazoline derivative as P2X3 receptor antagonist and use thereof” (HANGZHOU WESTAN PHARMACEUTICAL TECHNOLOGY CO., LTD, priority 2020, dated 2026).

Key:
[1] = Stability in simulated gastric fluids and simulated intestinal fluids; type: in vitro ADME; conditions: 1.25 μM, 37° C., up to 5 hours, pH 1.3 with pepsin / pH 6.8 with trypsin; result in words
Procedure: (§1) An LC-MS/MS method, wherein A liquid phase method adopts a gradient elution method. Chromatographic Column: ACQUITY UPLC® BEH C18 (2.1 mm×50 mm, 1.7 μm); Flow Rate: 0.35 mL/min; Injection Volume: 1 μL; Column Temperature: 40° C.; Automatic Sampler Temperature: 10° C.; Mobile Phase Compositions: mobile phase A: 0.1% formic acid water, and mobile phase B: acetonitrile. Mass spectrometry conditions adopt an ESI source, and positive ion and multiple reaction monitoring (MRM) modes were used for mass spectrometry analysis.
Simulated gastric fluid and simulated intestinal fluid samples were taken, in which 1,200 μL of an acetonitrile solution containing an internal standard (5 ng/mL loratadine) was added. Even vortex mixing was conducted at 2,500 rpm. Centrifuging was conducted for 10 minutes at 20,000 rcf at 4° C. […] Contents of prototype drugs were detected by LC-MS/MS. […]
MassLynx V4.2 software was used for data collecting. After integration parameters were optimized, target chromatographic peaks were automatically integrated, individual chromatographic peaks were not allowed to be integrated separately or manually, and retention time and a peak area were calculated. Data was collected by MassLynx V4.2, and subjected to integration processing to obtain the retention time and the peak area, and a peak area ratio of an analyte to an internal standard was calculated. […]

[2] = Liver microsomal enzyme stability test; type: in vitro ADME; conditions: Human liver microsomes 0.5 mg/mL, 1 μM compound, 1 mM NADPH, 37° C.; for half-life at 1 μM: read-out: t1/2 (=0.693/k, min)
Procedure: as §1, with “μL (YS001), 3 μL (testosterone);” for “μL;”, “4°” for “10°”
Liver microsome incubation samples were taken, in which 400 μL of an acetonitrile solution containing an internal standard (1 ng/mL loratadine) was added for a termination reaction. Even vortex mixing was conducted at 2,500 rpm. Centrifuging was conducted for 10 minutes at 20,000 rcf at 4° C. Supernatants were taken into clean lined tubes. Contents of prototype drugs were detected by LC-MS/MS.
Metabolic rate test: human liver microsomes were taken, unfrozen and thawed on ice, and gently shaken evenly. […] 80 μL of the above solution was pipetted, and pre-incubated for 5 minutes in a 37° C. water bath, then, 20 μL of a 5 mM NADPH solution was added, and incubating was conducted in a 37° C. water bath. […] After reaction for 0, 10, 30, 60, and 90 minutes, the reaction was terminated with 4 times the volume of acetonitrile (containing 1 ng/mL internal standard loratadine). Even vortex mixing was conducted. High-speed centrifuging was conducted for 10 minutes at 20,000 rcf at 4° C. Supernatants were taken for LC-MS/MS detection. Each incubation sample was subjected to a parallel test in triplicate. Positive control was metabolic samples of microsomes of corresponding species to a positive drug testosterone (1 μM). The reaction was terminated with 4 times the volume of acetonitrile (containing 1 ng/mL internal standard loratadine). Incubation time points were 0, 30, 60 minutes.
Analyst 1.6.3 software was used for data collecting. After integration parameters were optimized, target chromatographic peaks were automatically integrated, individual chromatographic peaks were not allowed to be integrated separately or manually, and retention time and a peak area were calculated. Data was collected by Analyst 1.6.3, and subjected to integration processing to obtain the retention time and the peak area, and a peak area ratio of an analyte to an internal standard was calculated. Then, Microsoft Office Excel was used for secondary processing to calculate a half-life period t1/2 and a clearance rate CLint thereof. A residual percentage (% Control) of tested compounds was calculated from a ratio of a concentration of a non-zero time point sample to a concentration of a zero-time sample. Ln (% Control) was plotted against incubation time and subjected to linear fitting. An elimination constant (ke, 1/min), an elimination half-life period (t1/2, min) and an in-vitro intrinsic clearance rate (CLint, μL/(mg·min)) of the tested compounds were calculated. T1/2=0.693/ke, CLint=ke/Cprotein (Note: ke is a slope, and Cprotein is a protein concentration.)

SMILES	stability in artificial gastric and intestinal fluids [1]	Clint, microsome (=k/Cprotein, μL × min^−1 × mg^−1 proteins) [2]	ke (=−slope, min^−1) [2] [min⁻¹]	half-life at 1 μM [2] [min]
Cc1ccc(C2=NN(C(=O)N[C@H](C)c3ccc(C(F)(F)F)nc3)C[C@@H]2N2CCOC2=O)cc1 [Compound 22]	relatively stable	21.4 μL × min^−1 × mg^−1 proteins	0.0107	64.8
CCOC(=O)N(C)[C@H]1CN(C(=O)N[C@H](C)c2cnc(C(F)(F)F)nc2)N=C1c1ccc(C)cc1 [Compound 4, (S)-4-(N-methyl-N-ethoxycarbonylamino)-3-(4-methylphenyl)-N-((R)-1-(2-(trifluoromethyl)pyrimidin-5-yl)ethyl)-4,5-dihydro-1H-pyrazol-1-carboxamide]	relatively stable	3.8 μL × min^−1 × mg^−1 proteins	0.0019	364
